Results: patent US5147876A, “2,6-di,2,4,6-, 2,5,6-tri and 2,4,5,6-tetra-substituted pyrimidines, their pharmaceutically acceptable salts, pharmaceutical compositions containing same and their use in the treatment of neurological diseases” (Mitsui Petrochemical Industries, Ltd., priority 1988, dated 1992)
Structures can show the parent of a compound that is named as a salt.

System: neuro-2a (mouse neuroblastoma cells)
Experiment: Action on neuro-2a: proportion of cells containing outgrown neurites
Type: cell-based
Conditions: mean ± S.D.
Procedure: The effects of the compounds of this invention on neuroblastoma cells were examined by the following method.
Mouse neuro 2a cells in the logarithmic growth period in the Dulbecco's modified Eagle's medium DMEM, containing 100 units/ml of penicillin G sodium and 100 micrograms/ml of streptomycin sulfate]containing 10 % of FCS were seeded in a 48-well plate so that the number of cells was 1,000 cells/well, and cultured for one day in 0.25 ml of the culture fluid in each well in an incubator containing 5 % of carbon dioxide gas in air at 37° C. Then, a 4 % aqueous glutaraldehyde solution in the same amount as a medium (0.25 ml) was added, and the culture fluid was left to stand at room temperature for 2 hours to fix the cells. After washing with water, a 0.05 % aqueous solution of methylene blue was added to stain the cells Under a microscope, the number of cells containing outgrown neurites (cells having at least one neurite with a length of at least two times as large as the long diameter of the cell) was counted visually, and the proportion of these cells in the entire cells was calculated. The well was observed over 5 or more visual fields (at least 2 % of the entire surface area of the well) continuous to the left and right from a mark put at the center of the well, and more than 200 cells was counted. One drug compound was used in 6 different concentrations at most, and three runs were conducted for each concentrations.

SMILES	Number of cells having neurites with a length at least two times the diameter of each cell/total number of cells (0.03 mM) [%]	Number of cells having neurites with a length at least two times the diameter of each cell/total number of cells (0.3 mM) [%]	Number of cells having neurites with a length at least two times the diameter of each cell/total number of cells (0.1 mM) [%]	other results
Cc1ccc(S(=O)(=O)N(C)c2ccnc(N3CCC(c4ccccc4)CC3)n2)cc1 [Compound 2012]	6.6 ± 1.2	6.6 ± 3.1	–	–
CN1C(=O)Cc2cnc(N3CCN(S(C)(=O)=O)CC3)nc21 [Compound 3404]	3.3 ± 1.3	3.4 ± 1.4	–	–
CN(C(=O)c1ccccc1)c1nccc(N2CCC(C(C)(C)C)CC2)n1 [Compound 620]	4.0 ± 1.3	–	–	Number of cells having neurites with a length at least two times the diameter of each cell/total number of cells (0.01 mM): 4.7 ± 0.4%
CN(C(=O)c1ccccc1)c1ccnc(NC2CCN(C(=O)c3ccccc3)CC2)n1 [Compound 2202]	–	–	2.2 ± 2.0	–
CN1C(=O)Cc2cnc(N3CCN(C(c4ccccc4)c4ccc(F)cc4)CC3)nc21 (centres unmarked) [Compound 3136]	13.8 ± 4.8	7.1 ± 3.0	20.9 ± 5.3	Number of cells having neurites with a length at least two times the diameter of each cell/total number of cells (0.01 mM): 5.8 ± 0.6%
CN1C(=O)Cc2cnc(N3CCN(C(c4ccccc4)c4ccccc4)CC3)nc21 [Compound 3128, 2-(4-diphenylmethylpiperazino)-5,6-dihydro-7-methyl-6-oxo(7H)pyrrolo2,3-d]pyrimidine hydrochloride]	–	11.9 ± 4.5	14.2 ± 1.9	–
CN(C(=O)c1ccccc1)c1ccnc(N(Cc2ccccc2)Cc2ccccc2)n1 [Compound 2108]	4.8 ± 2.0	–	–	Number of cells having neurites with a length at least two times the diameter of each cell/total number of cells (1 mM): 13.5 ± 0.1%
CNc1nc(N2CCC(c3ccccc3)CC2)ncc1C [Compound 1098]	10.2 ± 0.9	–	5.7 ± 2.0	Number of cells having neurites with a length at least two times the diameter of each cell/total number of cells (0.01 mM): 5.3 ± 1.4%
CN1C(=O)Cc2cnc(N3CCN(C(c4ccccc4)(c4ccccc4)c4ccccc4)CC3)nc21 [Compound 3300]	–	6.1 ± 1.2	–	Number of cells having neurites with a length at least two times the diameter of each cell/total number of cells (1 mM): 7.8 ± 1.0%
CN(C(=O)c1ccccc1)c1ccnc(N2CCC(c3ccccc3)CC2)n1 [Compound 171]	–	8.8 ± 2.6	37.1 ± 1.9	–
CN(C(=O)c1ccccc1)c1ccnc(N2CCC(OC(=O)c3ccccc3)CC2)n1 [Compound 2226]	6.4 ± 3.3	–	15.4 ± 3.9	–
CC(C)N(Cc1ccccc1)c1nccc(N(C)C(=O)c2ccccc2)n1 [Compound 662]	–	2.6 ± 0.9	3.1 ± 1.6	–
CNc1nc(C)cc(N2CCCCC2)n1 [Compound 1110]	4.4 ± 0.3	16.5 ± 2.1	6.3 ± 4.4	Number of cells having neurites with a length at least two times the diameter of each cell/total number of cells (0.01 mM): 3.4 ± 1.1%
CN(C(=O)c1ccccc1)c1ccnc(NC2CCNCC2)n1 [Compound 2188]	–	3.8 ± 1.1	2.4 ± 0.9	–
CN(C(=O)c1ccccc1)c1ccnc(N2CCC(c3ccccc3)CC2)n1 [Compound 167]	–	9.3 ± 2.3	22.5 ± 3.4	–
CN1C(=O)Cc2cnc(N3CCN(C4c5ccccc5-c5ccccc54)CC3)nc21 [Compound 3200]	–	–	–	Number of cells having neurites with a length at least two times the diameter of each cell/total number of cells (0.01 mM): 2.7 ± 0.7%

SMILES	Number of cells having neurites with a length at least two times the diameter of each cell/total number of cells (0.03 mM) [%]	Number of cells having neurites with a length at least two times the diameter of each cell/total number of cells (0.3 mM) [%]	Number of cells having neurites with a length at least two times the diameter of each cell/total number of cells (0.1 mM) [%]	other results
CNc1ccnc(N2CCCc3ccccc32)n1 [Compound 1034]	3.9 ± 2.8	11.3 ± 1.6	7.6 ± 2.1	–
CN(C(=O)c1ccccc1)c1ccnc(N2CCC(NC(=O)c3ccccc3)CC2)n1 [Compound 2174]	–	–	–	Number of cells having neurites with a length at least two times the diameter of each cell/total number of cells (0.01 mM): 2.5 ± 1.0%
CN(C(=O)COc1ccccc1)c1ccnc(N2CCC(c3ccccc3)CC2)n1 [Compound 2286]	9.7 ± 5.4	–	8.4 ± 0.8	–
CN(C(=O)c1ccc(NC(=O)c2ccccc2)cc1)c1ccnc(N2CCC(c3ccccc3)CC2)n1 [Compound 2194]	–	7.6 ± 2.8	9.5 ± 3.5	–
CN(C(=O)c1ccccc1)c1ccnc(N2CCC(O)CC2)n1 [Compound 2060]	3.6 ± 0.1	–	–	Number of cells having neurites with a length at least two times the diameter of each cell/total number of cells (1 mM): 7.6 ± 0.7%
CCOC(=O)c1cnc(N2CCCCC2)nc1CSC [Compound 816]	4.7 ± 2.1	–	4.0 ± 0.3	–
CC1CCN(c2nccc(N(C(=O)c3ccccc3)c3ccccc3)n2)CC1.Cc1ccc(S(=O)(=O)O)cc1 [Compound 150]	9.3 ± 1.9	6.6 ± 3.0	13.6 ± 1.2	–
CN1CCN(C(=O)N(C)c2ccnc(N3CCC(c4ccccc4)CC3)n2)CC1 [Compound 2234]	5.1 ± 3.2	–	5.7 ± 2.8	–
CN(C(=O)c1ccccc1)c1ccnc(N2CCC(N3CCCCC3)CC2)n1 [Compound 2052]	3.7 ± 0.4	–	–	Number of cells having neurites with a length at least two times the diameter of each cell/total number of cells (0.01 mM): 4.6 ± 2.1%
CN(C(=O)c1ccccc1)c1ccnc(N2CCC(c3ccccc3)CC2)n1 [Compound 166]	–	13.4 ± 4.0	36.8 ± 7.1	–
COC(=O)c1cnc(NC(C)C)nc1C [Compound 800, 2-isopropylamino-4-methyl-5-methoxycarbonylpyrimidine]	–	11.4 ± 1.2	–	Number of cells having neurites with a length at least two times the diameter of each cell/total number of cells (1 mM): 25.7 ± 1.9%; Number of cells having neurites with a length at least two times the diameter of each cell/total number of cells (3 mM): 22.3 ± 0.7%; Number of cells having neurites with a length at least two times the diameter of each cell/total number of cells (10 mM): 16.9 ± 0.8%
CC(C)N(C(=O)c1ccccc1)c1nccc(N2CCC(c3ccccc3)CC2)n1 [Compound 652]	6.1 ± 0.6	–	12.5 ± 2.8	–
CNc1nccc(N2CCC(c3ccccc3)CC2)n1 [Compound 1122]	10.2 ± 3.8	–	–	Number of cells having neurites with a length at least two times the diameter of each cell/total number of cells (0.01 mM): 4.2 ± 2.1%
CCOC(=O)C1CCN(c2nccc(N(C)C(=O)c3ccccc3)n2)CC1 [Compound 2100]	4.4 ± 0.8	–	4.7 ± 1.4	–
CN(C(=O)c1ccccc1)c1ccnc(N2CCC(c3ccccc3)CC2)n1 [Compound 165]	–	12.4 ± 1.8	41.0 ± 0.7	–
